Laboratory results from patent publication US4555525A, “Use of desethyl-N-acetylprocainamide (NAPADE) as an inotropic agent” (Administrators of the Tulane Educational Fund, priority 1984, dated 1985).
“And” between values parts separate entries of the source, which are not always exact repeats. Equal entries are not always repeated. “Also recorded” adds a separate entry of the source. Where two headings read alike, the source gives them in different places. Values belong to the compound of their own block, whether it stands above or below them.

Assays:
[1] = cited from earlier work
cardiac muscle [2] = test: Cardiovascular effects of procainamide and NAPA, for comparison with NAPADE; assay type: in vivo; conditions: procainamide or NAPA; for effect on force of contraction of the heart muscle (inotropic effect): procainamide at 60 mg/kg i.v. as a 15 minute infusion, 60 mg/kg
cardiac muscle [3] = test: NAPA effect after pretreatment with propranolol; assay type: in vivo
cardiac muscle [4] = test: Cardiovascular effects in chloralose-urethane anesthetized dogs (myocardial force, heart rate, mean arterial pressure); assay type: in vivo, dog (male mongrel)
Text: We have investigated the cardiovascular effects of NAPADE in animal models and have observed the following unique properties of NAPADE: […]
(§1) Myocardial force, mean arterial pressure and heart rate are expressed as the percent change from baseline for each experimental group. Statistical analysis was done with analysis of variance for repeated measurements and Duncan's multiple range test. All values are mean ± SEM.

β-adrenergic receptor = test: Cardiovascular effects of NAPADE after pretreatment with propranolol in anesthetized dogs; assay type: in vivo, dog (male mongrel)
Text: as §1

[5] = mice; cited from earlier work
[6] = NAPADE pharmacokinetics in chloralose-urethane anesthetized dogs (HPLC plasma levels, two-compartment model); assay type: in vivo, dog (male mongrel)
Method: Blood samples were obtained over a period of 5-120 minutes to measure NAPADE plasma concentration by high-performance liquid chromatography (HPLC) and to construct a plasma concentration versus time curve of FIG. 1.
The pharmacokinetics of NAPADE were analyzed with a two-compartment model with elimination from the central compartment. The method of residuals was used to resolve the exponential components of each plasma concentration versus time curve and to obtain estimates of alpha and beta (first-order rate constants) and A and B intercepts corrected to 0-time using the method of Loo and Reigelman. These parameters were then used to estimate apparent volume of distribution (V central, V peripheral, V total) and clearance values (Cl intercompartmental, Cl elimination) for each dog according to standard pharmacokinetic methodology.

[7] = NAPADE-HCl 60 mg/kg, 15-minute IV infusion
[8] = NAPADE-HCl 60 mg/kg IV after propranolol 0.5 mg/kg followed by 10 μg/kg/min
[9] = individual dogs No. 1-8, one line per dog, NAPADE-HCl 60 mg/kg, 15-minute IV infusion, 60 mg/kg

Compound: CCN(CC)CCNC(=O)c1ccc(NC(C)=O)cc1 [NAPA, N-acetylprocainamide]
elimination half-life ([1]; NAPA in the dog, approximate): approximately six
elimination clearance ([1]; NAPA in the dog): 2.64 ± 0.9 mL/min/kg
apparent volume of distribution (Vtotal) ([1]; NAPA, previous studies): 1.48 ± 0.16 L/kg
effect on blood pressure (hypotensive effect) (cardiac muscle [2]): exhibiting hypotensive effects
effect on heart rate (cardiac muscle [2]): decreasing the heart rate
effect on force of contraction of the heart muscle (inotropic effect) (cardiac muscle [2]): increases the force of contraction of heart muscle; also recorded: positive inotropic effects
inotropic action after propranolol pretreatment (cardiac muscle [3]): negative inotropic action is apparent

apparent volume of distribution, NAPADE as a fraction of NAPA value ([6]; compared with NAPA from previous studies): approximately one-third
half-life ([6]; dog, plasma, iv, 60 mg/kg, individual dogs No. 1-8, one line per dog, NAPADE-HCl 60 mg/kg, 15-minute IV infusion, read-out: T1/2(BETA) (elimination half-life)): 55 min
half-life ([6]; dog, plasma, iv, 60 mg/kg, mean of 8 dogs (± SEM in text), NAPADE-HCl 60 mg/kg, 15-minute IV infusion, read-out: T1/2 beta (terminal / elimination half-life)): 54.5 ± 2.9 min
clearance ([6]; dog, plasma, iv, 60 mg/kg, mean of 8 dogs, NAPADE-HCl 60 mg/kg, 15-minute IV infusion, read-out: ClELIMINATION (elimination clearance)): 8.56 mL/min/kg
Vd ([6]; dog, plasma, iv, 60 mg/kg, mean of 8 dogs, NAPADE-HCl 60 mg/kg, 15-minute IV infusion, read-out: VCENTRAL (volume of the central compartment)): 0.153 L/kg
Vd ([6]; dog, plasma, iv, 60 mg/kg, mean of 8 dogs, NAPADE-HCl 60 mg/kg, 15-minute IV infusion, read-out: VTOTAL (total apparent volume of distribution)): 0.513 L/kg
Cmax at 0.25 h ([6]; dog, plasma, NAPADE-HCl 60 mg/kg, 15-minute IV infusion, at 15 minutes, mean ± SEM, read-out: peak NAPADE concentrations (plasma)): 165 ± 18.1 µg/mL
Tmax ([6]; dog, plasma, NAPADE-HCl 60 mg/kg, 15-minute IV infusion, read-out: time of peak plasma concentrations (converted)): 15 min
ClINTERC. (intercompartmental clearance) ([6]; mean of 8 dogs, NAPADE-HCl 60 mg/kg, 15-minute IV infusion): 0.01546 L/min/kg
ClELIMINATION (elimination clearance) ([6]; mean of 8 dogs, NAPADE-HCl 60 mg/kg, 15-minute IV infusion, 60 mg/kg): 8.56 ± 1.2 mL/min/kg
Compound: CCNCCNC(=O)c1ccc(NC(C)=O)cc1 [NAPADE, Desethyl-N-acetylprocainamide]
duration of inotropic and chronotropic actions (cardiac muscle [4]; NAPADE-HCl 60 mg/kg IV): 50 to 90 min
duration of significantly increased myocardial force (cardiac muscle [4]; NAPADE-HCl 60 mg/kg IV, compared to the control group): 90 min
duration of significantly increased heart rate (cardiac muscle [4]; NAPADE-HCl 60 mg/kg IV, over control): 50 min
time of peak effects (inotropic and chronotropic) (cardiac muscle [4]; [7]): 15 min
maximum increase in heart rate over baseline (cardiac muscle [4]; NAPADE-HCl 60 mg/kg, 15-minute IV infusion, mean ± SEM): 22.2±4.4 percent over baseline
maximum increase in myocardial force over baseline (cardiac muscle [4]; NAPADE-HCl 60 mg/kg, 15-minute IV infusion, right ventricular, mean ± SEM): 48.9±10 percent over baseline
effect on blood pressure (hypotensive effect) (cardiac muscle [4]; NAPADE, result in words): lacks significant hypotensive effects; also recorded: small and statistically insignificant changes in blood pressure; also recorded: without significant changes in systemic arterial pressure
effect on heart rate (chronotropic effect) (cardiac muscle [4]; NAPADE, result in words): positive chronotropic effect; also recorded: significant increases in myocardial force and heart rate; also recorded: significant positive inotropic and chronotropic actions
effect on myocardial force of contraction (inotropic effect) (cardiac muscle [4]; NAPADE, result in words): positive inotropic effects; also recorded: very significant increase in myocardial force of contraction; also recorded: significant increases in myocardial force; also recorded: significant positive inotropic and chronotropic actions
negative inotropic (myocardial depressant) effect after propranolol pretreatment (β-adrenergic receptor; NAPADE in the presence of β-adrenergic receptor blockade with propranolol): lacks negative inotropic effects; also recorded: No such effect was seen
blood pressure effect after propranolol pretreatment (β-adrenergic receptor; [8]): only a mild decrease in blood pressure; also recorded: seemed to potentiate the mild hypotensive actions; also recorded: potentiated the mild hypotensive actions
chronotropic action after propranolol pretreatment (β-adrenergic receptor; [8]): abolishes the positive inotropic and chronotropic actions; also recorded: effectively blocked the positive inotropic and chronotropic actions
inotropic action after propranolol pretreatment (β-adrenergic receptor; [8]): abolishes the positive inotropic and chronotropic actions; also recorded: effectively blocked the positive inotropic and chronotropic actions
antifibrillatory activity [5]: antifibrillatory activity
decline of plasma concentrations / kinetics of elimination [6, 7]: declined in a bi-exponential fashion; also recorded: bi-exponential kinetics of elimination
ClINTERC. (intercompartmental clearance) ([6]; individual dogs No. 1-8, one line per dog, NAPADE-HCl 60 mg/kg, 15-minute IV infusion): 0.00746 L/min/kg and 0.00999 L/min/kg and 0.02467 L/min/kg and 0.00991 L/min/kg and 0.02412 L/min/kg and 0.02245 L/min/kg and 0.00931 L/min/kg and 0.01577 L/min/kg
ClELIMINATION (elimination clearance) [6, 9]: 8.17 mL/min/kg and 4.99 mL/min/kg and 12.61 mL/min/kg and 7.34 mL/min/kg and 13.11 mL/min/kg and 11.54 mL/min/kg and 5.75 mL/min/kg and 5 mL/min/kg
T1/2(BETA) (elimination half-life) [6, 9]: 60 min and 67 min and 57 min and 56 min and 40 min and 47 min and 54 min
VTOTAL (total apparent volume of distribution) [6, 9]: 0.447 L/kg and 0.342 L/kg and 0.893 L/kg and 0.476 L/kg and 0.806 L/kg and 0.499 L/kg and 0.293 L/kg and 0.346 L/kg

Compound: CCN(CC)CCNC(=O)c1ccc(N)cc1 [procainamide, Procainamide]
effect on blood pressure (hypotensive effect) (cardiac muscle [2]): exhibits hypotensive effects
effect on heart rate (cardiac muscle [2]): decreases the heart rate
effect on force of contraction of the heart muscle (inotropic effect) (cardiac muscle [2]): decreases the force of contraction of the heart muscle; also recorded: negative inotropic effect
